Reference: ChEMBL document CHEMBL1201862, “PubChem BioAssay data set” (2004)
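1) Cells in 96-well plates. 2) Compound, 48 h, 5 concentrations. 3) Linear interpolation between surrounding doses. 4) Unreached endpoint = highest concentration. GI50: concentration for 50% inhibition of growth.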 Activity calls are given as the source filed them. No stated cut-off is given here; in the data, active = GI50 up to about 1.1 µM and inactive = higher.

Tests used:
Assay in all cases: NCI-60 cell line screen, 48 h
786-0 = test system: 786-0
BT-549 = test system: BT-549
COLO 205 = test system: COLO 205
DU-145 = test system: DU-145
HCT-116 = test system: HCT-116
MCF7 = test system: MCF7
MDA-MB-435 = test system: MDA-MB-435
NCI-H522 = test system: NCI-H522
NCI/ADR-RES = test system: NCI/ADR-RES
OVCAR-8 = test system: OVCAR-8
PC-3 = test system: PC-3
RPMI-8226 = test system: RPMI-8226
RXF 393 = test system: RXF 393
SF-295 = test system: SF-295
SK-MEL-2 = test system: SK-MEL-2
SK-OV-3 = test system: SK-OV-3
TK-10 = test system: TK-10
UACC-257 = test system: UACC-257
NCI-H460 = test system: NCI-H460
SF-539 = test system: SF-539

| SMILES | GI50 (786-0) | GI50 (BT-549) | GI50 (COLO 205) | GI50 (DU-145) | GI50 (HCT-116) | GI50 (MCF7) | GI50 (MDA-MB-435) | GI50 (NCI-H522) | GI50 (NCI/ADR-RES) | GI50 (OVCAR-8) | GI50 (PC-3) | GI50 (RPMI-8226) | GI50 (RXF 393) | GI50 (SF-295) | GI50 (SK-MEL-2) | GI50 (SK-OV-3) | GI50 (TK-10) | GI50 (UACC-257) | GI50 (NCI-H460) | GI50 (SF-539) |
| --- | --- | --- | --- | --- | --- | --- | --- | --- | --- | --- | --- | --- | --- | --- | --- | --- | --- | --- | --- | --- |
| CCC1c2[nH]c3ccccc3c2C[C@H]2C(=O)NC(CCC(=O)OC(C)(C)C)C(=O)N12 (stereo partly specified) | 56.6 µM (inactive) | 53.3 µM (inactive) | 32.4 µM (inactive) | > 100 µM (inactive) | 43.3 µM (inactive) | 42.4 µM (inactive) | 49.5 µM (inactive) | 29.6 µM (inactive) | 62.5 µM (inactive) | 48.4 µM (inactive) | 33.7 µM (inactive) | 31.6 µM (inactive) | 52.7 µM (inactive) | 42.3 µM (inactive) | 60.8 µM (inactive) | 63.5 µM (inactive) | 42.6 µM (inactive) | 40.2 µM (inactive) | – | – |
| O=C(CCCN1CCC(Nc2ccc(F)cc2)(c2nnnn2C2CCCCC2)CC1)c1ccc(F)cc1 | 17.8 µM (inactive) | 16.5 µM (inactive) | 14.3 µM (inactive) | 14.5 µM (inactive) | 13.2 µM (inactive) | 17.8 µM (inactive) | 16.7 µM (inactive) | 16.3 µM (inactive) | 16.3 µM (inactive) | 23.6 µM (inactive) | 13.1 µM (inactive) | 5.42 µM (inactive) | 12.6 µM (inactive) | 18.3 µM (inactive) | 16.3 µM (inactive) | 3.39 µM (inactive) | 15.3 µM (inactive) | 21.3 µM (inactive) | 11.6 µM (inactive) | 12.6 µM (inactive) |
| c1ccc2nn(C3CCCO3)nc2c1 (stereo unspecified) | > 100 µM (inactive) | > 100 µM (inactive) | > 100 µM (inactive) | > 100 µM (inactive) | > 100 µM (inactive) | > 100 µM (inactive) | > 100 µM (inactive) | > 100 µM (inactive) | > 100 µM (inactive) | > 100 µM (inactive) | > 100 µM (inactive) | – | > 100 µM (inactive) | > 100 µM (inactive) | > 100 µM (inactive) | > 100 µM (inactive) | > 100 µM (inactive) | > 100 µM (inactive) | > 100 µM (inactive) | > 100 µM (inactive) |
| COc1cc(/C=N\c2nc(-c3ccc(NS(=O)(=O)c4ccc(Cl)c(OC)c4)cc3)cs2)ccc1O | > 100 µM (inactive) | 28.8 µM (inactive) | 30.1 µM (inactive) | > 100 µM (inactive) | 37.7 µM (inactive) | 21 µM (inactive) | 35.4 µM (inactive) | 18.8 µM (inactive) | > 100 µM (inactive) | 50.1 µM (inactive) | 50.8 µM (inactive) | 21 µM (inactive) | 27.9 µM (inactive) | > 100 µM (inactive) | 32.2 µM (inactive) | > 100 µM (inactive) | – | – | – | 47.5 µM (inactive) |
| COC1N(C2CC(O)C(CO)O2)C(=O)NC(=O)C1(F)Br (stereo unspecified) | 5.01 µM (inactive) | 25 µM (inactive) | 21.6 µM (inactive) | 4.72 µM (inactive) | 7.8 µM (inactive) | 0.52 µM (active) | 39.6 µM (inactive) | 49.1 µM (inactive) | 10.7 µM (inactive) | 4.02 µM (inactive) | 51.3 µM (inactive) | 19.3 µM (inactive) | 46.7 µM (inactive) | 2.83 µM (inactive) | > 92 µM (inactive) | > 50 µM (inactive) | > 100 µM (inactive) | 70.5 µM (inactive) | 0.346 µM (active) | 0.239 µM (active) |
| O=P(Nc1ccccc1)(Oc1ccccc1)N1CCN(c2ccccc2)CC1 (stereo unspecified) | 22.1 µM (inactive) | 16 µM (inactive) | 19.6 µM (inactive) | 19.6 µM (inactive) | 16.8 µM (inactive) | 17.2 µM (inactive) | 20.8 µM (inactive) | 4.85 µM (inactive) | 17.6 µM (inactive) | 21.9 µM (inactive) | 18.1 µM (inactive) | 40.7 µM (inactive) | 18.2 µM (inactive) | 18.4 µM (inactive) | 20.9 µM (inactive) | 16.8 µM (inactive) | 21.8 µM (inactive) | 20.9 µM (inactive) | 17.4 µM (inactive) | 19.5 µM (inactive) |
| Cc1cc(=O)nc(Sc2ccc([N+](=O)[O-])cc2[N+](=O)[O-])[nH]1 | 16.7 µM (inactive) | 12.8 µM (inactive) | 4.65 µM (inactive) | 17.2 µM (inactive) | 10.2 µM (inactive) | 14.4 µM (inactive) | 25.6 µM (inactive) | 7.23 µM (inactive) | 30.4 µM (inactive) | 15.9 µM (inactive) | 22.2 µM (inactive) | 3.9 µM (inactive) | 12.9 µM (inactive) | > 50.5 µM (inactive) | 20.6 µM (inactive) | 71.8 µM (inactive) | 15.8 µM (inactive) | 21.2 µM (inactive) | 23 µM (inactive) | – |
| O=C1C(NS(=O)(=O)c2ccccc2)=C(n2cnc3ccccc32)C(=O)c2ccccc21 | 60.4 µM (inactive) | 4.66 µM (inactive) | > 100 µM (inactive) | > 100 µM (inactive) | > 100 µM (inactive) | > 100 µM (inactive) | > 100 µM (inactive) | 0.187 µM (active) | > 100 µM (inactive) | > 100 µM (inactive) | > 100 µM (inactive) | 50.5 µM (inactive) | 16 µM (inactive) | 57.4 µM (inactive) | > 100 µM (inactive) | > 100 µM (inactive) | 89.3 µM (inactive) | > 100 µM (inactive) | > 100 µM (inactive) | > 100 µM (inactive) |
| CCN1CC2=C(NC(=S)NC2c2ccc(Cl)cc2)/C(=C/c2ccc(Cl)cc2)C1 (stereo unspecified) | 45.6 µM (inactive) | > 100 µM (inactive) | > 100 µM (inactive) | > 100 µM (inactive) | 62.5 µM (inactive) | > 100 µM (inactive) | 61.9 µM (inactive) | > 100 µM (inactive) | > 100 µM (inactive) | 88.5 µM (inactive) | 46.5 µM (inactive) | 17.5 µM (inactive) | > 100 µM (inactive) | 67.1 µM (inactive) | > 100 µM (inactive) | > 100 µM (inactive) | > 100 µM (inactive) | > 100 µM (inactive) | 18.5 µM (inactive) | – |
| CC(C)=C1C(=O)C[C@]2(C)C/C=C(\C)CC/C=C(\C)CC[C@@H]12 | 8.69 µM (inactive) | 10.9 µM (inactive) | 8.51 µM (inactive) | 16.7 µM (inactive) | 8.32 µM (inactive) | 11.5 µM (inactive) | 9.53 µM (inactive) | 6.97 µM (inactive) | 7.36 µM (inactive) | 8.51 µM (inactive) | 11.8 µM (inactive) | 11.9 µM (inactive) | 7.29 µM (inactive) | 11.3 µM (inactive) | 7.85 µM (inactive) | 18.9 µM (inactive) | 9.42 µM (inactive) | 11.1 µM (inactive) | – | 8.57 µM (inactive) |
| CC(=O)C1C(=O)C(=O)N(c2ccccc2)C1=O (stereo unspecified) | > 100 µM (inactive) | > 100 µM (inactive) | > 100 µM (inactive) | > 100 µM (inactive) | > 100 µM (inactive) | > 100 µM (inactive) | > 100 µM (inactive) | > 100 µM (inactive) | > 100 µM (inactive) | > 100 µM (inactive) | > 100 µM (inactive) | – | > 100 µM (inactive) | > 100 µM (inactive) | > 100 µM (inactive) | > 100 µM (inactive) | > 100 µM (inactive) | > 100 µM (inactive) | > 100 µM (inactive) | > 100 µM (inactive) |
| COc1cc2c(NCCCCCO)ncnc2c(OC)c1OC | > 100 µM (inactive) | > 100 µM (inactive) | > 100 µM (inactive) | > 100 µM (inactive) | > 100 µM (inactive) | > 100 µM (inactive) | > 100 µM (inactive) | > 100 µM (inactive) | > 100 µM (inactive) | > 100 µM (inactive) | > 100 µM (inactive) | > 93.1 µM (inactive) | > 100 µM (inactive) | > 100 µM (inactive) | > 100 µM (inactive) | > 100 µM (inactive) | > 100 µM (inactive) | > 100 µM (inactive) | > 100 µM (inactive) | > 100 µM (inactive) |
| C=CCc1cc(-c2cc(CC=C)c(O)c(CN(CC)CC)c2)cc(CN(CC)CC)c1O | 30.5 µM (inactive) | > 49.2 µM (inactive) | 26.3 µM (inactive) | > 100 µM (inactive) | 22 µM (inactive) | 58.5 µM (inactive) | 37.2 µM (inactive) | 20.6 µM (inactive) | 73.1 µM (inactive) | > 96.6 µM (inactive) | 40.2 µM (inactive) | 27.5 µM (inactive) | 21.4 µM (inactive) | 33 µM (inactive) | 26.9 µM (inactive) | > 100 µM (inactive) | 62.7 µM (inactive) | 23.6 µM (inactive) | 21.3 µM (inactive) | 21.4 µM (inactive) |
| CC(=O)O[C@H]1C(=O)[C@@]2(C)[C@H]([C@H](OC(=O)c3ccccc3)[C@]3(O)C[C@H](OC(=O)[C@H](O)[C@@H](NC(=O)c4ccccc4)c4ccccc4)C(C)=C1C3(C)C)[C@]1(OC(C)=O)CO[C@@H]1C[C@@H]2O [PACLITAXEL] | 0.0337 µM (active) | 0.0327 µM (active) | 0.00303 µM (active) | 0.0239 µM (active) | 0.00268 µM (active) | 0.00292 µM (active) | 0.00395 µM (active) | 0.00464 µM (active) | 3.11 µM (inactive) | – | 0.0182 µM (active) | 0.00267 µM (active) | 0.00649 µM (active) | – | – | 0.00881 µM (active) | 0.113 µM (active) | – | 0.00296 µM (active) | 0.00373 µM (active) |
